The values below come from US20250333418A1, “PURINE COMPOUNDS, COMPOSITIONS COMPRISING THEM AND USES THEREOF” (Novo Nordisk A/S, priority 2022, published 2025).

Experiment [1] addresses T1, human CB1 receptor (Homo sapiens, UniProt P21554).
T1 construct: expressed in transfected cells; host or cells: HEK293
As to the kind of experiment: bioSensAll β-arrestin2 plasma membrane translocation (+GRK2) BRET biosensor assay in HEK293 cells transfected with hCB1; test compound added before EC75-80 of agonist CP55,940 (100 nM). Format: cell-based. Conditions: βArrestin2 (+GRK2) BRET biosensor, vs CP55,940 100 nM (EC75-80), read-out: CB1 wt βarr2 IC50. As for the experimental part: (§1) Using polyethylenimine (PEI) transfection agent, HEK293 cells were transfected in suspension with the human CB1 receptor and one of the following bioSensAll® assays: GAPL-Gi2, or β-arrestin plasma membrane (PM) translocation biosensor (+GRK2). Cells were directly seeded in 96-well plates immediately following transfection.
(§2) Cells were incubated with coelenterazine (luciferase substrate) and different test compounds prior to the measurement of BRET signals.
(§3) Used in this project are i) Gα plasma membrane (GAPL) biosensors and the ii) β-arrestin plasma membrane translocation biosensor.
ii) The multimolecular β-arrestin membrane recruitment biosensors allow for real-time spatio-temporal monitoring of β-arrestin 1 and β-arrestin 2 following GPCR activation. Specifically, these β-arrestin sensors were designed to detect the recruitment of proteins to the plasma membrane (β-arrestin PM) with localization to compartment resulting in an increased BRET signal.
(§4) HEK293 cells were maintained in Dulbecco's Modified Eagle Medium (DMEM) (Wisent; cat #319-030-CL: without sodium pyruvate, with 4.5 g/L glucose, without L-glutamine) supplemented with 1% penicillin-streptomycin (Wisent; cat #450-201-EL) and 2 or 10% fetal bovine serum (Wisent cat #090150).
(§5) HEK293 cells were co-transfected with hCB1 and one of the above-listed bioSensAll® assays. For each transfection condition: • the total amount of transfected DNA was kept constant at 1 μg per mL of cell culture to be transfected; whenever necessary, salmon sperm DNA (Invitrogen, cat #15632011) was used as ‘carrier’ DNA to supplement plasmid DNA (i.e., biosensor and receptor); • the PEI (polyethylenimine 25 kDa linear, PolyScience, cat #23966) to DNA ratio (ug:ug) was fixed at 3:1.
(§6) Transfections were carried out as follows: • DNA and PEI were first diluted separately in 150 mM NaCl. The volume of the diluent in each tube corresponds to 5% of the cell culture volume to be transfected. • Once DNA and PEI were diluted, the PEI-containing solution was added to the DNA solution and the DNA/PEI mixture immediately vortexed for 5 seconds. • The DNA/PEI mixture was incubated for at least 20 minutes at room temperature to allow for the formation of DNA/PEI complexes. • During the incubation, HEK293 cells were detached, counted and re-suspended in culture medium (composition specified above). • At the end of the incubation period, the DNA/PEI mixture was added to the cells. • Cells were finally distributed in 96-well plates (White Opaque 96-well/Microplates, Greiner, cat #655083 or CulturPlate-96, White Opaque 96-well Microplate, PerkinElmer, cat #6005688) at a density of 30,000 cells per well.
(§7) At 48 hours post-transfection: • Using 450-Select TS Biotek plate washer, culture medium was aspirated and replaced with 100 μL of Hank's Balanced Salt Solution buffer (HBSS) (Wisent, cat #319-067CL: without red phenol; with sodium bicarbonate, with calcium and magnesium, with HEPES) per well. • Plates were then incubated (equilibrated) at 37° C., 5% CO2 for 60 minutes. • Increasing doses of test compounds were then added to each well using the HP D300e digital dispenser (Tecan). All compounds were assayed at the following 12 concentrations (in nM) with each biosensor: 0.000, 0.013, 0.040, 0.120, 0.320, 0.960, 2.80, 8.00, 24.0, 70.0, 205 and 600. • Three to 5 minutes later, an assay-specific effective concentration (EC)75-80 of agonist CP55,940 (i.e., 0.1 nM and 100 nM for G[…]i2-GAPL or […]Arrestin2 (+GRK2) assay, respectively) was added to wells previously injected with test compound (i.e., previous step 3). […]

Experiment [2] has as its target T1, human CB1 receptor. Put plainly: bioSensAll GAPL-Gi2 BRET biosensor assay in HEK293 cells transfected with hCB1; test compound added before EC75-80 of agonist CP55,940 (0.1 nM). It counts as cell-based. Conditions: vs CP55,940 0.1 nM (EC75-80), read-out: CB1 wt Gi2 IC50. How it is done:
as §1, §2, §3
i) GAPL sensors are used to monitor the activation of heterotrimeric G proteins at the plasma membrane upon receptor stimulation. Specifically, these multimolecular BRET sensors detect the plasma membrane recruitment of proteins that interact with active Gα subunits in a G protein family-selective manner. G protein activation following receptor stimulation generally leads to an increase in the BRET signal.
as §4, §5, §6, §7
For orientation: Bioluminescence resonance energy transfer reports proximity on the nanometre scale.

Usually IC50 stands for the midpoint of a concentration-inhibition curve.

T1 sequence (P21554 whole entry): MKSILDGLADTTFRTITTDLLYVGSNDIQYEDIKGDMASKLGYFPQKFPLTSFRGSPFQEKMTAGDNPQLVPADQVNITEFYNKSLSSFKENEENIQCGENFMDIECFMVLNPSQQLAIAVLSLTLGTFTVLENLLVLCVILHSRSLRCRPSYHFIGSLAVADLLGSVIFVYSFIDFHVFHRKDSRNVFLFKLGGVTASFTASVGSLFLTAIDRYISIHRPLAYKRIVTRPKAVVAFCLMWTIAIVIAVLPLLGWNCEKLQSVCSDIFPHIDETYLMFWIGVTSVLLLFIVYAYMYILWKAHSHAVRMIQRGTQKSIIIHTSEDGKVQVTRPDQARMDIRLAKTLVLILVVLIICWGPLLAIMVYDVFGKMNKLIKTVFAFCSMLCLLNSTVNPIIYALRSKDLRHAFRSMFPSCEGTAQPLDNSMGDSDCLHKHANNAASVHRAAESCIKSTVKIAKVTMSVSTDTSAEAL

Take `FC(F)(F)C1CCN(c2nc(N3C[C@H]4CCC[C@H]4C3)nc3c2nc(-c2ccccc2Cl)n3-c2ccc(Cl)cc2)CC1` [Compound 30, 2-[(3aS,6aR)-3,3a,4,5,6,6a-hexahydro-1H-cyclopenta[c]pyrrol-2-yl]-8-(2-chlorophenyl)-9-(4-chlorophenyl)-6-[4-(trifluoromethyl)-1-piperidyl]purine]: the figures for the IC50 at human CB1 receptor [1] and on human CB1 receptor [2] were 60 nM and 14.4 nM, respectively.
For the compound `FC(F)(F)C1CCN(c2nc(N3C[C@H]4C[C@H]4C3)nc3c2nc(-c2ccccc2Cl)n3-c2ccc(Cl)cc2)CC1` [Compound 31, 2-[(1R,5S)-3-azabicyclo[3.1.0]hexan-3-yl]-8-(2-chlorophenyl)-9-(4-chlorophenyl)-6-[4-(trifluoromethyl)-1-piperidyl]purine], the half-maximal inhibitory concentration (IC50) stood at 21.8 nM at human CB1 receptor [1] and 2.76 nM on human CB1 receptor [2].
In the same order, the values of `O=S1(=O)CCN(c2nc(N3CCC(C(F)(F)F)CC3)c3nc(-c4ccccc4Cl)n(-c4ccc(Cl)cc4)c3n2)CC1` [Compound 32, 4-[8-(2-chlorophenyl)-9-(4-chlorophenyl)-6-[4-(trifluoromethyl)-1-piperidyl]purin-2-yl]-1,4-thiazinane 1,1-dioxide] are 3.02 nM and 0.509 nM.
The like results for `FC(F)(F)C1CCN(c2nc(OC3CCCOC3)nc3c2nc(-c2ccccc2Cl)n3-c2ccc(Cl)cc2)CC1` (stereo not shown) [Compound 33, 8-(2-chlorophenyl)-9-(4-chlorophenyl)-2-tetrahydropyran-3-yloxy-6-[4-(trifluoromethyl)-1-piperidyl]purine] were, in that order, 4.98 nM and 1.42 nM.
The like results for `CC(=O)NC(=N)Nc1nc(N2CCC(C(F)(F)F)CC2)c2nc(-c3ccccc3Cl)n(-c3ccc(Cl)cc3)c2n1` [Compound 34, N—[N-[8-(2-chlorophenyl)-9-(4-chlorophenyl)-6-[4-(trifluoromethyl)-1-piperidyl]purin-2-yl]carbamimidoyl]acetamide] were, in that order, 17.6 nM and 6.62 nM.
Regarding `OC[C@@H]1CCCN1c1nc(N2CCC(C(F)(F)F)CC2)c2nc(-c3ccccc3Cl)n(-c3ccc(Cl)cc3)c2n1` [Compound 35, [(2S)-1-[8-(2-chlorophenyl)-9-(4-chlorophenyl)-6-[4-(trifluoromethyl)-1-piperidyl]purin-2-yl]pyrrolidin-2-yl]methanol], the half-inhibitory concentration (IC50) on human CB1 receptor [1] is 3.3 nM; at human CB1 receptor [2], 0.687 nM.
Regarding `CC1(C(N)=O)CCN(c2nc(N3CCC[C@H]3CO)nc3c2nc(-c2ccc(C#N)cc2)n3-c2ccc(Cl)cc2)CC1` [Compound 36, 1-[9-(4-chlorophenyl)-8-(4-cyanophenyl)-2-[(2S)-2-(hydroxymethyl)pyrrolidin-1-yl]purin-6-yl]-4-methyl-piperidine-4-carboxamide], the IC50 turned out to be 1.52 nM at human CB1 receptor [1] and 0.686 nM on human CB1 receptor [2].
Consider `CC1(C(N)=O)CCN(c2nc(N3CCC[C@H]3CO)nc3c2nc(-c2cccc(C#N)c2)n3-c2ccc(Cl)cc2)CC1` [Compound 37, 1-[9-(4-chlorophenyl)-8-(3-cyanophenyl)-2-[(2S)-2-(hydroxymethyl)pyrrolidin-1-yl]purin-6-yl]-4-methyl-piperidine-4-carboxamide], for which the IC50 worked out at 60.5 nM on human CB1 receptor [1] and 7.39 nM at human CB1 receptor [2].
As for `CN(CC(C)(C)O)c1nc(N2CCC(C(F)(F)F)CC2)c2nc(-c3ccccc3Cl)n(-c3ccc(Cl)cc3)c2n1` [Compound 38, 1-[[8-(2-chlorophenyl)-9-(4-chlorophenyl)-6-[4-(trifluoromethyl)-1-piperidyl]purin-2-yl]-methyl-amino]-2-methyl-propan-2-ol], the IC50 at human CB1 receptor [1] came to 6.48 nM; at human CB1 receptor [2], 1.67 nM.
Take `FC(F)(F)C1CCN(c2nc(-c3cc[nH]n3)nc3c2nc(-c2ccccc2Cl)n3-c2ccc(Cl)cc2)CC1` [Compound 39]: the IC50 on human CB1 receptor [1] is 16.4 nM; on human CB1 receptor [2], 3.29 nM.
In the same order, the values of `CN(CC(C)(C)O)c1nc(N2CCC(C)(C(N)=O)CC2)c2nc(-c3ccccc3Cl)n(-c3ccc(Cl)cc3)c2n1` [Compound 40, 1-[8-(2-chlorophenyl)-9-(4-chlorophenyl)-2-[(2-hydroxy-2-methyl-propyl)-methyl-amino]purin-6-yl]-4-methyl-piperidine-4-carboxamide] are 15.3 nM and 0.971 nM.
As to `CN(CC1(O)CC1)c1nc(N2CCC(C)(C(N)=O)CC2)c2nc(-c3ccccc3Cl)n(-c3ccc(Cl)cc3)c2n1` [Compound 41, 1-[8-(2-chlorophenyl)-9-(4-chlorophenyl)-2-[(1-hydroxycyclopropyl)methyl-methyl-amino]purin-6-yl]-4-methyl-piperidine-4-carboxamide], the results for the IC50 at human CB1 receptor [1] and on human CB1 receptor [2] were 7.33 nM and 1.65 nM, respectively.
The like results for `COCCN(C)c1nc(N2CCC(C)(C(N)=O)CC2)c2nc(-c3ccccc3Cl)n(-c3ccc(Cl)cc3)c2n1` [Compound 42, 1-[8-(2-chlorophenyl)-9-(4-chlorophenyl)-2-[2-methoxyethyl(methyl)amino]purin-6-yl]-4-methyl-piperidine-4-carboxamide] were, in that order, 2.39 nM and 0.695 nM.
Consider `CC1(C(N)=O)CCN(c2nc(-n3ccnc3CO)nc3c2nc(-c2ccccc2Cl)n3-c2ccc(Cl)cc2)CC1` [Compound 43, 1-[8-(2-chlorophenyl)-9-(4-chlorophenyl)-2-[2-(hydroxymethyl)imidazol-1-yl]purin-6-yl]-4-methyl-piperidine-4-carboxamide], for which the IC50 came to 5.27 nM at human CB1 receptor [1] and 1.37 nM on human CB1 receptor [2].
In the same order, the values of `CC1(C(N)=O)CCN(c2nc(-c3cc[nH]n3)nc3c2nc(-c2ccccc2Cl)n3-c2ccc(Cl)cc2)CC1` [Compound 44] are 10 nM and 2.1 nM.
As to `CC1(C(N)=O)CCN(c2nc(-c3cnc[nH]3)nc3c2nc(-c2ccccc2Cl)n3-c2ccc(Cl)cc2)CC1` [Compound 45], the IC50 was 39.9 nM on human CB1 receptor [1] and 5.85 nM on human CB1 receptor [2].
The like results for `CC1(C(N)=O)CCN(c2nc(-n3cnc(CO)c3)nc3c2nc(-c2ccccc2Cl)n3-c2ccc(Cl)cc2)CC1` [Compound 46, 1-[8-(2-chlorophenyl)-9-(4-chlorophenyl)-2-[4-(hydroxymethyl)imidazol-1-yl]purin-6-yl]-4-methyl-piperidine-4-carboxamide] were, in that order, 9.64 nM and 1.82 nM.
The like results for `CC1(C(N)=O)CCN(c2nc(-n3cnc(CCO)c3)nc3c2nc(-c2ccccc2Cl)n3-c2ccc(Cl)cc2)CC1` [Compound 47, 1-[8-(2-chlorophenyl)-9-(4-chlorophenyl)-2-[4-(2-hydroxyethyl)imidazol-1-yl]purin-6-yl]-4-methyl-piperidine-4-carboxamide] were, in that order, 6.65 nM and 1.87 nM.
The like results for `CN(CCO)c1nc(N2CCC(C)(C(N)=O)CC2)c2nc(-c3ccccc3)n(-c3ccc(Cl)cc3)c2n1` [Compound 48, 1-[9-(4-chlorophenyl)-2-[2-hydroxyethyl(methyl)amino]-8-phenyl-purin-6-yl]-4-methyl-piperidine-4-carboxamide] were, in that order, 5.91 nM and 1.2 nM.
For the compound `CN(CCO)c1nc(N2CCC(C)(C(N)=O)CC2)c2nc(-c3ncccc3Cl)n(-c3ccc(Cl)cc3)c2n1` [Compound 49, 1-[9-(4-chlorophenyl)-8-(3-chloro-2-pyridyl)-2-[2-hydroxyethyl(methyl)amino]purin-6-yl]-4-methyl-piperidine-4-carboxamide], the IC50 is 19.3 nM on human CB1 receptor [1] and 2.6 nM at human CB1 receptor [2].
